Source: patent US9289425B2, “Intranasal naloxone compositions and methods of making and using same” (priority 2013, dated 2016)
Structures can show the parent of a compound that is named as a salt. Where two headings read alike, the source gives them in different places.

Experiments:
[1] = Physicochemical properties of naloxone stated in the description; conditions: pH of about 5.5 to 6.5
Excerpt: Specifically, naloxone is known to have a pKa of about 8. For nasal formulations, wherein transmucosal delivery is desired, it is generally considered advantageous, if not necessary, to ensure that an active agent is primarily in an un-ionized state, as unionized species pass through membranes more easily than ionized species. […] The nasal mucosal is at a pH of about 5.5 to 6.5, a pH at which Applicant has found naloxone is unstable.
Naloxone prevents or reverses the effects of opioids including respiratory depression, sedation and hypotension. Also, it can reverse the psychotomimetic and dysphoric effects of agonist-antagonists such as pentazocine. […] In the presence of physical dependence on opioids, naloxone will produce withdrawal symptoms. However, in the presence of opioid dependence, withdrawal symptoms will appear within minutes of naloxone administration and will subside in about 2 hours. The severity and duration of the withdrawal syndrome are related to the dose and route of administration of naloxone and to the degree and type of dependence.

[2] = cited from earlier work

SMILES: C=CCN1CC[C@]23c4c5ccc(O)c4O[C@H]2C(=O)CC[C@@]3(O)[C@H]1C5 [naloxone, 17-allyl-4,5α-epoxy, 3-14-dihydroxymorphinan-6-one hydrochloride]
- stability versus pH [1]: unstable
- pKa [2]: about 8
- solubility ([2]; in alcohol): slightly soluble
- solubility ([2]; in ether and in chloroform): practically insoluble
- solubility ([2]; in water, in dilute acids, and in strong alkali): soluble
